In patent US12611470B2, “Chromatin-opening element for stable long term gene expression” (CZ Biohub SF, LLC, priority 2019, dated 2026):

B1: EF1a promoter: Elongation Factor 1 promoter, positive control for promoter activity (nucleic acid)
DNA: AATGTAGTCTTATGCAATACTCTTGTAGTCTTGCAACATGGTAACGATGAGTTAGCAACATGCCTTACAAGGAGAGAAAAAGCACCGTGCATGCCGATTGGTGGAAGTAAGGTGGTACGATCGTGCCTTATTAGGAAGGCAACAGACGGGTCTGACATGGATTGGACGAACCACTGAATTCCGCATTGCAGAGATATTGTATTTAAGTGCCTAGCTCGATACAATAAACGCCATTTGACCATTCACCACATTGGTGTGCACC
modifications: Rous sarcoma virus

How the values were obtained:
[1] = tested on: Transduced P19 cells; test: Epigenetic effector experiments: rescue of GFP expression in silenced transduced cells; format: cell-based, mouse; conditions: for reactivation of GFP expression: all examined populations, range of concentrations; for silenced cells rescued: RSV promoter-only construct, 24 h treatment
Method: (§1) GFP expression is rescued by treatment with DNA methylation inhibitor 5-aza-cytidine (5-aza) in day 18 UCOE-RSV cells from the lentiviral silencing experiment. Cells were replica plated at day 16, specified concentrations of 5-aza were introduced 24 hours later (with exception of control), and cells were passaged and assayed via flow cytometry 24 hours after chemical introduction for % GFP+ cells. Data is reported as mean±SD from three biological replicates.
as §1, with “HDAC” for “DNA methylation”, “trichostatin A (TSA)” for “5-aza-cytidine (5-aza)”, “24” for “18”, “22,” for “16,”, “TSA” for “5-aza”, “mean f SD” for “mean±SD”
Cells were replica plated at day 16, specified concentrations of 5-aza were introduced 24 hours later (with exception of control), and cells were passaged and assayed via flow cytometry 24 hours after chemical introduction for % GFP+ cells. Data is reported as mean±SD from three biological replicates. In the graph, data is shown from left to right for each construct: no treatment, 2 μM 5-aza, 10 μM 5-aza. […] Cells were replica plated at day 22, specified concentrations of TSA were introduced 24 hours later (with exception of control), and cells were passaged and assayed via flow cytometry 24 hours after chemical introduction for % GFP+ cells. Data is reported as mean f SD from three biological replicates. In the graph, data is shown from left to right for each construct: no treatment, 0.05 μM TSA, 0.1 μM TSA. […] Cells were replica plated at day 19, treated with 0.1 μM TSA or 10 μM 5-aza (with exception of control) 24 hours later, and cells were passaged and assayed via flow cytometry 24 hours after chemical introduction for % GFP+ cells. Data is reported as mean f SD from three biological replicates. In the graphs for FIG. 6C and FIG. 6D, the data is shown from left to right for each construct: no treatment, 0.1 μM TSA, 10 μM 5-aza.
Replica-plated cell populations were treated with varying concentrations of 5-aza-2′-deoxycytidine (Sigma-Aldrich, A3656) or Trichostatin A (Sigma-Aldrich, T1952) 24 hours after passaging. TSA was purchased as a readymade 5 mM solution in DMSO, which was then diluted to a 0.05 μM or 0.1 μM concentration in P19 growth media. 5 mg of 5-aza-2′-deoxycytidine was dissolved in 1 mL of 1:1 acetic acid: water to make a 21.9 mM stock solution, which was then diluted in P19 growth media to 2 μM or 10 μM. Cells were assayed through flow cytometry after 24 hours. […]

[2] = tested on: P19 cells; test: Standalone (intrinsic) promoter activity screen, UCOE-GFP construct lacking the Ef1a promoter; format: cell-based, mouse; conditions: promoterless GFP construct, after two weeks of antibiotic selection
Description: A schematic representation of the expression construct in which the candidate region (UCOE) is inserted upstream of the GFP gene in the absence of any other promoter sequences as used is shown as an inlay. As positive controls, the Ef1α promoter, the 2.2 kB A2UCOE sequence, and the 1.2 kB reverse orientation sequence 3′UCOE, were cloned into the same reporter construct as the candidate sequences. The percent GFP positive in the population was monitored as a metric for gene expression by flow cytometry analysis with each passage (% GFP). Stably transfected cells were assayed for % GFP+ and median fluorescent intensity (normalized to Ef1a promoter control). Data is reported as mean±SD from biological duplicates.
P19 cells were seeded at 25,000 cells/well in 12 well plates. 24 h after seeding, cells were transfected using Lipofectamine™ 2000 transfection reagent (Thermo Fisher) according to the manufacturer's instructions using 500 ng DNA/well and 2.5 μL of Lipofectamine per well. 24 hours after transfection, selection was initiated with 1 μg/mL puromycin (Sigma-Aldrich) in regular growth media and, from then on, cells were passaged at 1:15 or 1:20 dilutions whenever cells were 80-90% confluent (every 2-3 days) with frequent refreshing of puromycin-containing media to clear dead cells. After approximately 14-16 days, remaining cells were assumed to be stably transfected and were changed to regular growth media to initiate silencing experiments. During silencing experiments, the P19 cells were passaged every 2-3 days and re-seeded at 15,000 cells/well.
Fluorescence data throughout silencing experiments was obtained using a MACSQuant® VYB flow cytometer (Miltenyi Biotec). EGFP was measured through the 488-nm laser and 525/50 nm band pass filter. Flow cytometry data was analyzed using the FlowJo™ single cell flow cytometry analysis software (Tree Star). After being gated for singlets and viability, GFP+ gates in FlowJo were drawn such that a non-transfected or non-transduced P19 cell population was at 1% GFP+. Median values reported are of cells within the GFP+ gate, both % GFP positive and median are reported with the standard deviation of biological replicates.
As A2UOCE dually functions as a protective regulatory element and a universal promoter, the candidate UCOEs were further screened for standalone promoter activity. A similar experiment as the aforementioned screen was performed using a similar expression construct that lacked the Ef1a promoter. This construct was used to assess whether the candidate sequences could drive reporter expression and act as stand-alone functional promoters. Candidates were compared to the positive control of the EF1a promoter, which had ˜70% GFP+ cells after two weeks of antibiotic selection, showing a distinct positive population in the fluorescence histogram. The GFP+ gate (i.e., flow cytometry fluorescence threshold for GFP+ cells) was set to encompass 1% of untransfected cells and then applied to all samples. […] Such a result appears as a bimodal distribution on a histogram, with a peak below the gate threshold (i.e., GFP negative cell population) and a peak above it (i.e., the distinct GFP positive population mentioned above). […] In this study, a % GFP+ of at least 50% is considered to reflect the existence of a second population in the histograms, and thus a binary indicator of promoter function. […] The median GFP intensity of the GFP+ population was used a measure of the strength of the promoter, and normalized to the Ef1a positive control as shown in FIG. 2C.
This aligns with previous observations that the RNPA2B1 promoter is much stronger than that of CBX3 (Zhang, F., et al. (2010) Mol Ther, 18, 1640-1649 (7)). However, the RNPA2B1 promoter in A2UCOE is only 30% as strong as the EF1α promoter. […]

| Molecule | reactivation of GFP expression [1] | silenced cells rescued ([1]; highest dose of TSA, day 24 cells) | silenced cells rescued ([1]; highest dose of 5-aza, day 18 cells) | % GFP+ cells [2] | % GFP+ cells, representative flow cytometry example ([2]; one representative example) |
| --- | --- | --- | --- | --- | --- |
| CC(/C=C/C(=O)NO)=C\[C@@H](C)C(=O)c1ccc(N(C)C)cc1 [TSA, trichostatin A] | dose-dependent recovery of GFP expression | about 25% | – | – | – |
| Nc1ncn([C@@H]2O[C@H](CO)[C@@H](O)[C@H]2O)c(=O)n1 [Candidate 5-aza, 5-azacytidine] | dose-dependent increase in % GFP positive cells | – | 63% | – | – |
| B1 | – | – | – | ~70% | 74.2% |
